Where two headings read alike, the source gives them in different places.
Key:
blood pressure of SHR [1] = experiment: Antihypertensive effect by single administration, SHR, direct cannulation; format: in vivo, rat (spontaneously hypertensive rats; conditions: for average rate of decrease in blood pressure: over 6 hours; for blood pressure decrease: 6 hours after; for ED (20% blood pressure decrease): Rattus norvegicus, read-out: DB20 (20% blood pressure descending dose)
Protocol: The effect was examined through both direct and modified tail-cuff methods using male SHRs aged 25 to 30 weeks and weighing about 300 g.
In the direct cannulation method, polyethylene cannules were inserted in femoral arteries of the conscious unanesthesized SHRs under back-fixation,and MR solution was administered in an amount of 0.1 mg/100 g of weight for venous injection, and 1 ml/100 g of weight for oral administration. Changes in the blood pressure over 6 hours were measured with a multi-purpose polygraph RM-85 made by NIHON KODEN Co., Ltd. MR was dissolved in 0.9% NaCl aqueous solution with 1 N-HCl, and the solution was neutralized for use.

blood pressure of SHR [2] = experiment: Antihypertensive effect by repeated administration, SHR; format: in vivo, rat (spontaneously hypertensive rats
Protocol: The effect was determined through a direct cannulation by using male SHRs aged 25 to 30 weeks and weighing about 300 g. […] Blood pressures were measured twice a day, just before and 4 hours after the administration with blood pressure recorder 8002 made by W+W Electronic.

[3] = system: spontaneous motor activity; experiment: Effect on spontaneous motor activity; format: in vivo, mouse (dd-strain); conditions: 25 mg/kg oral
Protocol: 25 mg/kg of MR were administered to the mice. After 15 minutes of letting them alone, spontaneous motor activity over 6 hours was measured hourly with an "Animex" made by AB Farad.

in vivo = format: in vivo, rat (SD (SPF)); conditions: rat, in vivo; oral sub-acute, rats; read-out: ineffective dose
Protocol: (§1) All the rats were observed daily and general symptoms noted. Weight was measured daily, average food-intake once every three days, and average water-intake once every two days.

rats [4] = experiment: in vivo; format: in vivo, rat (SD (SPF))
Protocol: as §1

rats [5] = system: rats
Protocol: Urinanalysis was conducted on the last day of the repeated administration as to pH, protein content, glucose content, ketone body content and occult blood by testing paper methods. (Labstix, Miles-Sankyo Co., Ltd.)

[6] = Change of MR content in blood (serum level); format: in vivo, dogs, rabbits and rats
Protocol: In case of oral administration, the animals were not permitted to eat for 24 hours, except for the experiment of biotransformation.

[7] = Excretion into bile after venous injection; format: in vivo; conditions: rabbit, iv, within 6 hours, of amount administered
Protocol: From the Figure it is recognized that an amount as small as 0.3 to 0.5% of the administered MR is discharged into bile within 6 hours after administration.

rats [8] = system: rats; remark: listed apart in the source
Protocol: The rate were bred in individual cages under the following conditions: temperature, 23°±2° C.; relative humidity, 55±5%; free taking of solid food (CE-2, CLEA Japan, Inc.) and tap water.
Volume of the medicine solution for one administration was dicided to be 1 ml per 100 g of weight, and the dose was administered once a day, 6 times a week over 5 weeks. The control group received the same volume of 0.2% carboxymethyl cellulose solution.
After the final administration followed by 24 hours fast, the following analyses were made: Glucose (by o-toluidine-boric acid method); Total Protein (by biurett method); Blood Uria Nitrogen (diacetyl monoxime method); GOT and GPT Activities (Reitman-Frankel method); Alkaline Phosphatase Activity (Kind-King method); and Sodium and Potassium Content (flame-photometer).

[9] = in vivo; cited from earlier work
histamine = conditions: in vivo; cited from earlier work
[10] = system: noradrenaline in heart and adrenals; conditions: in vivo; cited from earlier work
[11] = Excretion into urine after oral administration; conditions: rabbit, 10 mg/kg
Excerpt: Urine was collected with urine bladder catheter for rabbits and metabolic cages for rats.

Protocol for hexobarbital hypnosis: Period of induced sleeping was measured with righting reflex as a parameter.

COC(=O)[C@H]1[C@H]2C[C@@H]3c4[nH]c5cc(OC)ccc5c4CCN3C[C@H]2C[C@@H](O)[C@@H]1OC [MR, methylreserpate]
average rate of decrease in blood pressure (blood pressure of SHR [1]; 2 mg/kg venous injection): 13%
onset of blood pressure decrease (blood pressure of SHR [1]; 4 mg/kg oral): 2 h
blood pressure decrease (blood pressure of SHR [1]; 4 mg/kg oral): 18%
average rate of decrease in blood pressure (blood pressure of SHR [1]; 4 mg/kg venous injection): 22.5%
blood pressure decrease (blood pressure of SHR [1]; 8 mg/kg oral): 26%
average rate of decrease in blood pressure (blood pressure of SHR [1]; 8 mg/kg venous injection): 28%
blood pressure decrease (blood pressure of SHR [1]; 16 mg/kg oral): 37%
ED (20% blood pressure decrease) (blood pressure of SHR [1]; iv, I.V.): 3.5 mg/kg
ED (20% blood pressure decrease) (blood pressure of SHR [1]; po, P.O.): 11.9 mg/kg
antihypertensive effect compared with RCN (blood pressure of SHR [1]; oral): almost the same
antihypertensive effect (blood pressure of SHR [1]; oral, summary for SHR and dogs): prolonged antihypertensive effect
antihypertensive effect compared with RCN (blood pressure of SHR [1]; venous injection): less intense
blood pressure 24 hours after administration (blood pressure of SHR [2]; oral, once a day over 2 weeks): had returned almost to the original level
disappearance of effect compared with RSP (blood pressure of SHR [2]; rat, in vivo): disappears more rapidly than that of RSP
tolerance (blood pressure of SHR [2]; repeated administration over 2 weeks): hardly giving tolerance
long lasting effect (blood pressure of SHR [2]; single and repeated administration to SHRs): no long lasting effect
average suppressive effect among four groups ([3]; P=0.05): no significant difference
effect on spontaneous motor activity ([3]; from 3 hours after): tended to supress spontaneous motor activity
NOAEL (in vivo): 12.5 mg/kg
side effects (rats [4]; only at the higher doses): blepharoptosis, leukopenia, increase of urine volume, atrophy of hematopoietic organs, cortial hypertrophy of adrenal and degeneration of liver cells (in dead rats)
food-intake (rats [4]; rat, in vivo): No difference
general symptoms (rats [4]; rat, in vivo): blepharoptosis, roughening of fur and dirtiness of public region
general symptoms, additional (rats [4]; rat, in vivo): reduction of body weight, bloody cojunctival discharge, and a decrease of limb-skin temperature
urine Glucose - (rats [5]; 25.0 mg/kg): 10 Number of Rats
urine Ketone Body + (rats [5]; 25.0 mg/kg): 0 Number of Rats
urine Ketone Body - (rats [5]; 25.0 mg/kg): 10 Number of Rats
urine Occult Blood - (rats [5]; 25.0 mg/kg): 10 Number of Rats
urine Protein + (rats [5]; 25.0 mg/kg): 6 Number of Rats
urine Protein ++ (rats [5]; 25.0 mg/kg): 4 Number of Rats
urine Protein +++ (rats [5]; 25.0 mg/kg): 0 Number of Rats
urine Protein - (rats [5]; 25.0 mg/kg): 0 Number of Rats
urine pH 6 (rats [5]; 25.0 mg/kg): 2 Number of Rats
urine pH 7 (rats [5]; 25.0 mg/kg): 7 Number of Rats
urine pH 8 (rats [5]; 25.0 mg/kg): 1 Number of Rats
urine Glucose - (rats [5]; 50.0 mg/kg): 10 Number of Rats
urine Ketone Body + (rats [5]; 50.0 mg/kg): 1 Number of Rats
urine Ketone Body - (rats [5]; 50.0 mg/kg): 9 Number of Rats
urine Occult Blood - (rats [5]; 50.0 mg/kg): 10 Number of Rats
urine Protein + (rats [5]; 50.0 mg/kg): 6 Number of Rats
urine Protein ++ (rats [5]; 50.0 mg/kg): 4 Number of Rats
urine Protein +++ (rats [5]; 50.0 mg/kg): 0 Number of Rats
urine Protein - (rats [5]; 50.0 mg/kg): 0 Number of Rats
urine pH 6 (rats [5]; 50.0 mg/kg): 1 Number of Rats
urine pH 7 (rats [5]; 50.0 mg/kg): 7 Number of Rats
urine pH 8 (rats [5]; 50.0 mg/kg): 2 Number of Rats
urine Glucose - (rats [5]; 100.0 mg/kg): 10 Number of Rats
urine Ketone Body + (rats [5]; 100.0 mg/kg): 1 Number of Rats
urine Ketone Body - (rats [5]; 100.0 mg/kg): 9 Number of Rats
urine Occult Blood - (rats [5]; 100.0 mg/kg): 10 Number of Rats
urine Protein + (rats [5]; 100.0 mg/kg): 3 Number of Rats
urine Protein ++ (rats [5]; 100.0 mg/kg): 3 Number of Rats
urine Protein +++ (rats [5]; 100.0 mg/kg): 3 Number of Rats
urine Protein - (rats [5]; 100.0 mg/kg): 1 Number of Rats
urine pH 6 (rats [5]; 100.0 mg/kg): 2 Number of Rats
urine pH 7 (rats [5]; 100.0 mg/kg): 7 Number of Rats
urine pH 8 (rats [5]; 100.0 mg/kg): 1 Number of Rats
increase in urine volume, interpretation (rats [5]; higher doses): seems to be a diuretic effect
urinanalysis overall (rats [5]; last day of repeated administration): do not indicate abnormal feature any worth special mention
urine Glucose - (rats [5]; rat, in vivo): 10 Number of Rats
urine Ketone Body + (rats [5]; rat, in vivo): 0 Number of Rats
urine Ketone Body - (rats [5]; rat, in vivo): 10 Number of Rats
urine Occult Blood - (rats [5]; rat, in vivo): 10 Number of Rats
urine Protein + (rats [5]; rat, in vivo): 5 Number of Rats
urine Protein ++ (rats [5]; rat, in vivo): 3 Number of Rats
urine Protein +++ (rats [5]; rat, in vivo): 2 Number of Rats
urine Protein - (rats [5]; rat, in vivo): 0 Number of Rats
urine pH 6 (rats [5]; rat, in vivo, pH 6): 3 Number of Rats
urine pH 7 (rats [5]; rat, in vivo, pH 7): 4 Number of Rats
urine pH 8 (rats [5]; rat, in vivo, pH 8): 3 Number of Rats
absorption in the digestive tract ([6]; in vivo): readily absorbed
correlation of serum level pattern with pattern of blood pressure decrease ([6]; in vivo): high corralation
absorption from digestive tracts compared with RSP and RCN ([6]; oral): more readily absorbed
Tmax ([6]; serum, po, 10 mg/kg, after administration, read-out: time of maximum serum level): 1 to 2 h
dose excreted at 6 h [7]: 0.3 to 0.5%
Hypnotic Time (hexobarbital hypnosis; 25 mg/kg oral): 159 ± 7 s
Sleeping Time (hexobarbital hypnosis; 25 mg/kg oral): 34.2 ± 6.7 min
Hypnotic Time (hexobarbital hypnosis; mouse, in vivo): 144 ± 7 s
Sleeping Time (hexobarbital hypnosis; mouse, in vivo): 32.9 ± 4.4 min
influence on time to induce sleep and sleeping period (hexobarbital hypnosis; mouse, in vivo): did not influence
ALP (rats [8]; 25.0 mg/kg, 30 days): 17.0±0.93 K.A.U.
BUN (rats [8]; 25.0 mg/kg, 30 days): 15.7 ± 0.77 mg/dL
GOT (rats [8]; 25.0 mg/kg, 30 days): 92.2±8.74 K.U.
Glucose (rats [8]; 25.0 mg/kg, 30 days): 155.4 ± 6.06 mg/dL
Total Protein (rats [8]; 25.0 mg/kg, 30 days): 6.65 ± 0.08 g/dL
ALP (rats [8]; 50.0 mg/kg, 30 days): 18.7±1.39 K.A.U.
Total Protein (rats [8]; 50.0 mg/kg, 30 days): 6.76 ± 0.18 g/dL
BUN (rats [8]; 50.0 mg/kg, 30 days, P<0.05): 17.2 ± 0.56 mg/dL
GOT (rats [8]; 50.0 mg/kg, 30 days, P<0.05): 117.1±10.48 K.U.
Glucose (rats [8]; 50.0 mg/kg, 30 days, P<0.05): 113.7 ± 5.25 mg/dL
ALP (rats [8]; 100.0 mg/kg, 30 days): 22.7±2.91 K.A.U.
Total Protein (rats [8]; 100.0 mg/kg, 30 days): 6.57 ± 0.28 g/dL
BUN (rats [8]; 100.0 mg/kg, 30 days, P<0.05): 17.5 ± 1.01 mg/dL
GOT (rats [8]; 100.0 mg/kg, 30 days, P<0.05): 114.9±7.02 K.U.
Glucose (rats [8]; 100.0 mg/kg, 30 days, P<0.05): 100.5 ± 8.60 mg/dL
serum glucose (rats [8]; 50 and 100 mg/kg groups): decrease of glucose value
other serum biochemistry (rats [8]; all determinations other than glucose): all within the scope of normal values
ALP (rats [8]; rat, in vivo): 18.8±10.82
BUN (rats [8]; rat, in vivo): 14.6±0.35
GOT (rats [8]; rat, in vivo): 80.4±7.55
Glucose (rats [8]; rat, in vivo): 149.3±3.36
Total Protein (rats [8]; rat, in vivo): 7.06±0.09
antihypertensive effect [9]: no antihypertensive effect
histamine (histamine): increse of histamine
noradrenaline in heart and adrenals [10]: slight decrease of noradrenaline in heart and adrenals
dose excreted at 48 h [11]: 10 to 15%
